We go through 31 molecules from PubChem BioAssay AID1200 (NMMLSC, 2008).

The structures appear in SMILES notation. pEC50: −log10 of the molar value. Active and inactive are the calls of the source. No rule for the calls is given here.

For the first assay, the system named is prostate cells, cell count (flow cytometry events), cytotoxicity. The assay can be described thus: prostate cell loss as cytotoxicity readout, dose response, cytotoxicity control for prostate cell differentiation activator project, flow cytometry event count (AID 1200).
Details: not given
A word on the pEC50: it is the EC50 on a negative log10 scale, so that one unit is a factor of ten. Consider `COc1ccc(Nc2nc(N)nc(CN3CCC(Cc4ccccc4)CC3)n2)cc1`, for which the pEC50 was 5.61.

Take `COc1ccccc1N1CCN(Cc2cc(Br)c(O)c3ncccc23)CC1`: the negative-log EC50 (pEC50) is 5.96.

By EC50 is commonly meant the midpoint of the concentration-response curve. Take `COc1cc2nc(N3CCN(C(=O)C4COc5ccccc5O4)CC3)nc(N)c2cc1OC` (stereo unspecified): the EC50 was 9.6 µM (inactive).

On to `Cc1cc2c(=O)n(CC(=O)N3CCN(c4ccccc4)CC3)cnc2s1`, for which the EC50 is 0.0344 µM (inactive).

Take `CC1CCCCN1CCNC(=O)c1cc2c(-c3ccccc3F)nn(C)c2s1` (stereo unspecified): the pEC50 is 5.07.

For `Cc1ccccc1-c1nc(CN2CCC(C(=O)NCCCN3CCCC3)CC2)c(C)o1`, the EC50 is 0.358 µM (inactive).

For `CCCOc1ccccc1C1CC(=O)Nc2cc3c(cc21)OCO3` (stereo unspecified), the EC50 was 0.373 µM (inactive).

As to `COc1ccccc1N1CCN(c2nc3ccccc3nc2C(C#N)C(=O)OC(C)C)CC1` (stereo unspecified), the EC50 is 9.78 µM (inactive).

With `CCN(CC)CCNC(=O)c1cc2c(-c3ccc(Cl)cc3)nn(C)c2s1`, the pEC50 was 5.41.

Consider `CCN1CCN(c2ncc(C(=O)Nc3cc(Cl)c(OC)cc3OC)c3ccccc23)CC1`, for which the pEC50 was 5.53.

System in a further assay: not listed separately
The description is as above. The conditions noted are these: prostate cells, cell count (flow cytometry events), cytotoxicity; at 30 µM (top of the series).
For `COc1ccc(-c2noc(-c3cc(Cl)ccc3Cl)n2)cc1OC`, the cell count (% of control) was 347% (inactive).

With `CCOc1cccc2cc(-c3cn4cc(C)ccc4n3)c(=O)oc12`, the cell count (% of control) is 44.8% (inactive).

Take `CCn1c(=N)n(CC(O)COc2cccc(C)c2)c2ccccc21` (stereo unspecified): the cell count (% of control) is 266% (inactive).

As to `COc1ccccc1NC(=O)c1nc[nH]c1C(=O)Nc1ccccc1OC`, the cell count (% of control) was 546% (inactive).

In the case of `Cn1c(=O)[nH]c(=O)c2c1nc(Br)n2CCCSc1nc2ccccc2o1`, the cell count (% of control) is 227% (inactive).

In the case of `O=c1cc(-c2ccccc2)[nH]c2ccccc12`, the cell count (% of control) was 105% (inactive).

On to `Cc1nc2ncnn2c(C)c1CCC(=O)NCCCN1CCN(c2cccc(Cl)c2)CC1`, for which the cell count (% of control) is 1150% (inactive).

As to `C[C@H]1CCC/C=C/C2C[C@H](O)CC2[C@H](O)/C=C/C(=O)O1` (stereo partly specified), the cell count (% of control) is 129% (inactive).

Regarding `COc1ccc(N2CCN(CCCNC(=O)CCCn3c(=O)[nH]c4ccsc4c3=O)CC2)cc1`, the cell count (% of control) is 330% (inactive).

In the case of `Cc1cc(C)nc(N2CCC(C(=O)Nc3ccc(Oc4ccccc4)cc3)CC2)n1`, the cell count (% of control) is 264% (inactive).

As to `Cc1cc(N2CCN(C)CC2)nc2ccc(NC(=O)c3ccc4c(c3)OCO4)cc12`, the cell count (% of control) is 102% (inactive).

For the molecule `Cc1ccc(Nc2cc(=O)n(C3CCCCC3)c(=O)[nH]2)cc1C`, the cell count (% of control) is 196% (inactive).

For `Clc1ccc(COC(Cn2ccnc2)c2ccc(Cl)cc2Cl)cc1` (stereo unspecified), the cell count (% of control) was 350% (inactive).

`CCOc1ccc(NC(=O)COc2nsnc2N2CCCCC2)cc1`: the cell count (% of control) was 226% (inactive).

Regarding `Cc1ccccc1CS(=O)(=O)CCC(=O)NCCCN1CCN(c2ccccc2F)CC1`, the cell count (% of control) is 854% (inactive).

Turning to `CCN(CCNC(=O)C1CCN(Cc2nc(-c3ccc(Cl)cc3)oc2C)CC1)c1ccccc1`, the cell count (% of control) was 22% (inactive).

Consider `Cc1ccc(CNc2nc3ccccc3n3nnnc23)cc1`, for which the cell count (% of control) is 348% (inactive).

Consider `CCN(CCNC(=O)C1CCN(Cc2nc(-c3cccc(Cl)c3)oc2C)CC1)c1ccccc1`, for which the cell count (% of control) was 141% (inactive).

In the case of `O=C(Cn1cc2c(n1)CCCC2)NCCCN1CCN(c2ccccc2F)CC1`, the cell count (% of control) is 382% (inactive).

With `COc1ccc(-c2noc(CCC(=O)NCCCN3CCC(Cc4ccccc4)CC3)n2)cc1`, the cell count (% of control) was 276% (inactive).

Consider `N=c1n(CCN2CCCCC2)c2ccccc2n1CC(O)COc1ccccc1` (stereo unspecified), for which the cell count (% of control) was 311% (inactive).
